Measured values from ChEMBL document CHEMBL1151135, “The Chemistry of Taxol, a Clinically Useful Anticancer Agent” (1990).
Values after ≈ are worked out from the molar mass of the structure shown.

Tested on: J774.2
Assay: Cytotoxicity against mouse J774.2 cells
Type: functional
Details: not given

SMILES	ED50
CC(=O)O[C@H]1C(=O)[C@@]2(C)[C@H]([C@H](OC(=O)c3ccccc3)[C@]3(O)C[C@H](OC(=O)[C@H](OC(C)=O)[C@@H](NC(=O)c4ccccc4)c4ccccc4)C(C)=C1C3(C)C)[C@]1(OC(C)=O)CO[C@@H]1C[C@@H]2O	3 ×10⁻⁷ M
CC(=O)O[C@H]1C(=O)[C@]2(C)[C@@H](OC(C)=O)C[C@H]3OC[C@@]3(OC(C)=O)[C@H]2[C@H](OC(=O)c2ccccc2)[C@]2(O)C[C@H](OC(=O)[C@H](O)[C@@H](NC(=O)c3ccccc3)c3ccccc3)C(C)=C1C2(C)C [PACLITAXEL C7 ACETYLCARBOXYLIC ACID ESTER]	9 ×10⁻⁸ M

Tested on: KB
Assay: Cytotoxicity against human KB cells
Type: functional
Details: not given

SMILES	ED50 [×10⁻⁵ ug/ml]
CC(=O)O[C@H]1C(=O)[C@]2(C)[C@H](O)C[C@H]3OC[C@@]3(OC(C)=O)[C@H]2[C@H](OC(=O)c2ccccc2)[C@]2(O)C[C@H](OC(=O)[C@H](O)[C@@H](NC(=O)c3ccccc3)c3ccccc3)C(C)=C1C2(C)C	3

Same assay, conditions: Homo sapiens, KB; read-out: ED50 (the source's name)

SMILES	EC50 [µg/mL]
C=C1[C@@H](O)C[C@@H](OC(C)=O)[C@@]2(C)[C@@H](OC(C)=O)[C@H](OC(C)=O)C3=C(C)[C@@H](OC(C)=O)C[C@@](O)([C@@H](OC(C)=O)[C@H]12)C3(C)C [DECINNAMOYLTAXININE]	28 (≈ 47.1 µM)
CC(=O)OC[C@@]1(O)[C@H]2[C@H](OC(=O)c3ccccc3)[C@]3(O)C[C@H](OC(=O)[C@H](O)[C@@H](NC(=O)c4ccccc4)c4ccccc4)C(C)=C([C@@H](OC(C)=O)C(=O)[C@]2(C)[C@@H](O)C[C@@H]1O)C3(C)C	0.2 (≈ 0.229 µM)
CC(=O)O[C@H]1C(=O)[C@]2(C)C(=O)C[C@H]3OC[C@@]3(OC(C)=O)[C@H]2[C@H](OC(=O)c2ccccc2)[C@]2(O)C[C@H](OC(=O)C(=O)[C@@H](NC(=O)c3ccccc3)c3ccccc3)C(C)=C1C2(C)C	12 (≈ 14.1 µM)
CC(=O)O[C@H]1C[C@H]2OC[C@@]2(OC(C)=O)[C@H]2[C@H](OC(=O)c3ccccc3)[C@]3(O)C[C@H](OC(=O)[C@H](OC(C)=O)[C@@H](NC(=O)c4ccccc4)c4ccccc4)C(C)=C([C@@H](O)C(=O)[C@]12C)C3(C)C	< 0.01
CC(=O)O[C@@]12CO[C@@H]1C[C@H](O)[C@@]1(C)C(=O)C(=O)C3=C(C)[C@@H](OC(=O)[C@H](O)[C@@H](NC(=O)c4ccccc4)c4ccccc4)C[C@@](O)([C@@H](OC(=O)c4ccccc4)[C@H]21)C3(C)C	0.02 (≈ 0.0247 µM)
CC(=O)O[C@@]12CO[C@@H]1C[C@H](O)[C@@]1(C)C(=O)[C@H](O)C3=C(C)[C@@H](O)C[C@@](O)([C@@H](OC(=O)c4ccccc4)[C@H]21)C3(C)C	1 (≈ 1.84 µM)
CC(=O)O[C@H]1C(=O)[C@]2(C)[C@@H](OC(C)=O)C[C@H]3OC[C@@]3(OC(C)=O)[C@H]2[C@H](OC(=O)c2ccccc2)[C@]2(O)C[C@H](OC(=O)[C@H](OC(C)=O)[C@@H](NC(=O)c3ccccc3)c3ccccc3)C(C)=C1C2(C)C	0.03 (≈ 0.032 µM)
C=C(C)[C@@]12C[C@H](OC(=O)[C@H](OC(C)=O)[C@@H](NC(=O)c3ccccc3)c3ccccc3)C(C)=C1[C@@H](OC(C)=O)C(=O)[C@]1(C)[C@@H](OC(C)=O)C[C@H](OC(C)=O)[C@@](O)(COC(C)=O)[C@H]1[C@@H]2OC(=O)c1ccccc1	2.5 (≈ 2.55 µM)
CC(=O)O[C@H]1C(=O)[C@]2(C)C(=O)C[C@H]3OC[C@@]3(OC(C)=O)[C@H]2[C@H](OC(=O)c2ccccc2)[C@]2(O)C[C@H](OC(=O)[C@H](O)[C@@H](NC(=O)c3ccccc3)c3ccccc3)C(C)=C1C2(C)C	0.5 (≈ 0.587 µM)
CC(=O)O[C@H]1C(=O)[C@@H](C)C([C@@]2(OC(C)=O)CCC(=O)OC2)[C@H](OC(=O)c2ccccc2)[C@]2(O)C[C@H](OC(=O)[C@H](O)[C@@H](NC(=O)c3ccccc3)c3ccccc3)C(C)=C1C2(C)C (stereo partly specified)	2 (≈ 2.34 µM)

Species: Bos taurus
Assay: Inhibition of bovine brain tubulin assembly assessed as drug level causing decrease in tubulin depolymerization rate
Details: not given

SMILES	ID50 [nM]
CC(=O)O[C@H]1C(=O)[C@]2(C)[C@@H](OC(=O)c3ccc(C4(C(F)(F)F)N=N4)cc3)C[C@H]3OC[C@@]3(OC(C)=O)[C@H]2[C@H](OC(=O)c2ccccc2)[C@]2(O)C[C@H](OC(=O)[C@H](O)[C@@H](NC(=O)c3ccccc3)c3ccccc3)C(C)=C1C2(C)C	340
CC(=O)O[C@H]1C(=O)[C@@]2(C)[C@H]([C@H](OC(=O)c3ccccc3)[C@]3(O)C[C@H](OC(=O)[C@H](O)[C@@H](NC(=O)c4ccccc4)c4ccccc4)C(C)=C1C3(C)C)[C@]1(OC(C)=O)CO[C@@H]1C[C@@H]2O	100
CC(=O)O[C@H]1C(=O)[C@]2(C)[C@@H](OC(=O)c3ccccc3)C[C@H]3OC[C@@]3(OC(C)=O)[C@H]2[C@H](OC(=O)c2ccccc2)[C@]2(O)C[C@H](OC(=O)[C@H](O)[C@@H](NC(=O)c3ccccc3)c3ccccc3)C(C)=C1C2(C)C	170
